Experiments:
PI3K alpha = PI3K alpha (Homo sapiens, UniProt P42336); assay: PI3K alpha in vitro inhibition; assay type: biochemical
Experimental: (§1) The kinase or bromodomain inhibitory activity of a compound of the invention can be determined by routine methods known to the skilled artisan without undue experimentation, or by procuring relevant analysis by a commercial vendor offering such services. […] In vivo, PI3K inhibition can be determined from target tissue biopsies by standard tissue processing in which cells are disrupted and Western Blot analysis is performed to determine the presence or absence of pAKT (substrate of PI3K) relative to a control sample. PI3K inhibition assays and BTK inhibition assays are known in the art and can be procured commercially through vendors such as Reaction Biology (Malvern, PA). The activity of a compound of the invention as an inhibitor of a bromodomain-containing protein, such as a BET protein, including BRD2, BRD3, BRD4, and/or BRDT, or an isoform or mutant thereof, may be determined in vitro, in vivo, or in a cell line. In vitro assays include assays that determine inhibition of bromodomain-containing proteins. Alternatively, inhibitor binding may be determined by running a competition experiment where a provided compound is incubated with a bromodomain-containing protein, such as a BET protein bound to known ligands, labeled or unlabeled. In vitro bromodomain inhibition assays can be performed using Alpha Screen Technology (Perkin Elmer Life and Analytical Sciences, Shelton, CT). In vivo bromodomain inhibition can be determined indirectly by evaluating the amount of a protein whose gene transcription is influenced or controlled by the bromodomain protein, for example, MYCN protein transcription is controlled by BRD4 (J.E. Delmore et al., Cell 2011, 146, 904-917; A. Puissant, Cancer Discov. 2013, 3, 308-323).

BRD4-2 = biological target: T1, BRD4-2 (Homo sapiens, UniProt O60885); assay: BRD4-2 in vitro inhibition; assay type: binding
T1 construct: BRD4-2
Experimental: as §1

PI3K gamma = PI3K gamma (Homo sapiens, UniProt P48736); assay: PI3K gamma in vitro inhibition; assay type: biochemical; conditions: read-out: IC50 inhibition PI3K gamma
Experimental: as §1
(§2) IC50 inhibition data against the indicated targets were determined for compounds of the invention using standard in vitro assays (Tables 8 and 9).

PI3K beta = PI3K beta (Homo sapiens, UniProt P42338); assay: PI3K beta in vitro inhibition; assay type: biochemical
Experimental: as §1

BRD4-1 = biological target: T2, BRD4-1 (Homo sapiens, UniProt O60885); assay: BRD4-1 in vitro inhibition; assay type: binding
T2 construct: BRD4-1
Experimental: as §1

CDK6 cyclinD1 = CDK6 cyclinD1 (Homo sapiens, UniProt Q00534); assay: CDK6 cyclinD1 in vitro inhibition; assay type: biochemical
Experimental: as §1, §2

CDK4 cyclinD1 = CDK4 cyclinD1 (Homo sapiens, UniProt P11802); assay: CDK4 cyclinD1 in vitro inhibition; assay type: biochemical
Experimental: as §1, §2

BTK = BTK (Homo sapiens, UniProt Q06187); assay: BTK in vitro inhibition; assay type: biochemical
Experimental: as §1, §2

BTK C481S = BTK C481S (Homo sapiens, UniProt Q06187, C481S); assay: BTK C481S in vitro inhibition; assay type: biochemical
Experimental: as §1, §2

PI3K gamma, sequence (P48736 whole entry): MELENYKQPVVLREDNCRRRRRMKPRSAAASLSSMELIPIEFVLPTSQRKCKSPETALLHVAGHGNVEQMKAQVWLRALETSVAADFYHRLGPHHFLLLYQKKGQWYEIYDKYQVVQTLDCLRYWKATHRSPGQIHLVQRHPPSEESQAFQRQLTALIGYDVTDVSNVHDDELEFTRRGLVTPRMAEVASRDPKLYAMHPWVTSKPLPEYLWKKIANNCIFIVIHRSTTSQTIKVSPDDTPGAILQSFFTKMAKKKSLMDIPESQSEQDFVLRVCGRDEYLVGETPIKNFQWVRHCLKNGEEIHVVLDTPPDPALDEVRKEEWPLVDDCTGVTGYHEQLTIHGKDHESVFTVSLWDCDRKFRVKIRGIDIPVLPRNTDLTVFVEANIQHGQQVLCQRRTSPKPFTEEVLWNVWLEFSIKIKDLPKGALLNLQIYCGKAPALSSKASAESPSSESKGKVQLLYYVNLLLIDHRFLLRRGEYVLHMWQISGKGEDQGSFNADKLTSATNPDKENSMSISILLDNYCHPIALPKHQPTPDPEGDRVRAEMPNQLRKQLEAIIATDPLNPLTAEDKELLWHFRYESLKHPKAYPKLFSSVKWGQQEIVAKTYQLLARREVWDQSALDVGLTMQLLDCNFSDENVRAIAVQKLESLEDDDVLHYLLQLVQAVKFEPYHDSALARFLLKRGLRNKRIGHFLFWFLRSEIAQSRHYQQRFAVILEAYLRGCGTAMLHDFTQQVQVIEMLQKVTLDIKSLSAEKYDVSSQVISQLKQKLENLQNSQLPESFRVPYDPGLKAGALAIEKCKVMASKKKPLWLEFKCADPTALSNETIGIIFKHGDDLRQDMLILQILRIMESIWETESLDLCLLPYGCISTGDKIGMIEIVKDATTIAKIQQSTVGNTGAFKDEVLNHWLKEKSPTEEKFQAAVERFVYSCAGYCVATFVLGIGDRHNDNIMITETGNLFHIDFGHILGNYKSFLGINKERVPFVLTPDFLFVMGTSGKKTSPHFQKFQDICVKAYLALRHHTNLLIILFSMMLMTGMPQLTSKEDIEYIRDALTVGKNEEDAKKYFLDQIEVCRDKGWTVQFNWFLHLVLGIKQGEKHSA
CDK4 cyclinD1, sequence (P11802 whole entry): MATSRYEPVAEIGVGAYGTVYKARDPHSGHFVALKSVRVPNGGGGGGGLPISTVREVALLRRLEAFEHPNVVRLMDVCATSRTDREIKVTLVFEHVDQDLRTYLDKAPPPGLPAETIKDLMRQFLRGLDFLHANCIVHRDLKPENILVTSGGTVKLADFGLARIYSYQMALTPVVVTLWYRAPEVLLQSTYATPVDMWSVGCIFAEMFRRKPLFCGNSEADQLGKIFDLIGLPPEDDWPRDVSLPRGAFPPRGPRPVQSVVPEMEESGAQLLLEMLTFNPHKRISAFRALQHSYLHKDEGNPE
CDK4 cyclinD1, sequence (P24385 whole entry partner): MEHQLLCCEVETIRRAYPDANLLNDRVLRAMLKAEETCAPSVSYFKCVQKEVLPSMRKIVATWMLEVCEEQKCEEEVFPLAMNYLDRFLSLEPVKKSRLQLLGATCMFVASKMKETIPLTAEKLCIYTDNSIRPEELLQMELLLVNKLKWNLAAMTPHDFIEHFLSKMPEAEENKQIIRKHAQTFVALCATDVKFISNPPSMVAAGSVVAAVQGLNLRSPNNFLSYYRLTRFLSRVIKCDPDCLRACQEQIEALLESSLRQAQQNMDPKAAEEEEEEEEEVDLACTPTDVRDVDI
BTK C481S, sequence (Q06187 whole entry C481S): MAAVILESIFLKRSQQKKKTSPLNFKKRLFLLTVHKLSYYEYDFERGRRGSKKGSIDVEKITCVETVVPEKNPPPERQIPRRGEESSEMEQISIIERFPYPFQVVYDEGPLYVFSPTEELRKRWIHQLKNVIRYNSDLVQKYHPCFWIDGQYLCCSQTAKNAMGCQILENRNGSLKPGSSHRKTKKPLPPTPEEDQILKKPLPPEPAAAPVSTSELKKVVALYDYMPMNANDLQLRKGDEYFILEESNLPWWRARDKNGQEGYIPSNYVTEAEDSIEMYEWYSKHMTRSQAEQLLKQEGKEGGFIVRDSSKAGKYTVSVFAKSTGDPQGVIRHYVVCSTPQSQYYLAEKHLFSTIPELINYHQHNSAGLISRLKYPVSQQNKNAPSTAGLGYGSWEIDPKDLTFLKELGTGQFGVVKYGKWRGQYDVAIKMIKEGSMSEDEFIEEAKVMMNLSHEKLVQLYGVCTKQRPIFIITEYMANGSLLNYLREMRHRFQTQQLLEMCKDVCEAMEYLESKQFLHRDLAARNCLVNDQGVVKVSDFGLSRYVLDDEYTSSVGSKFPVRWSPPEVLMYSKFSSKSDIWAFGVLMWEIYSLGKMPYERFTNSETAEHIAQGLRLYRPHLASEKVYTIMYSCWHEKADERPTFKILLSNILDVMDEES
PI3K beta, sequence (P42338 whole entry): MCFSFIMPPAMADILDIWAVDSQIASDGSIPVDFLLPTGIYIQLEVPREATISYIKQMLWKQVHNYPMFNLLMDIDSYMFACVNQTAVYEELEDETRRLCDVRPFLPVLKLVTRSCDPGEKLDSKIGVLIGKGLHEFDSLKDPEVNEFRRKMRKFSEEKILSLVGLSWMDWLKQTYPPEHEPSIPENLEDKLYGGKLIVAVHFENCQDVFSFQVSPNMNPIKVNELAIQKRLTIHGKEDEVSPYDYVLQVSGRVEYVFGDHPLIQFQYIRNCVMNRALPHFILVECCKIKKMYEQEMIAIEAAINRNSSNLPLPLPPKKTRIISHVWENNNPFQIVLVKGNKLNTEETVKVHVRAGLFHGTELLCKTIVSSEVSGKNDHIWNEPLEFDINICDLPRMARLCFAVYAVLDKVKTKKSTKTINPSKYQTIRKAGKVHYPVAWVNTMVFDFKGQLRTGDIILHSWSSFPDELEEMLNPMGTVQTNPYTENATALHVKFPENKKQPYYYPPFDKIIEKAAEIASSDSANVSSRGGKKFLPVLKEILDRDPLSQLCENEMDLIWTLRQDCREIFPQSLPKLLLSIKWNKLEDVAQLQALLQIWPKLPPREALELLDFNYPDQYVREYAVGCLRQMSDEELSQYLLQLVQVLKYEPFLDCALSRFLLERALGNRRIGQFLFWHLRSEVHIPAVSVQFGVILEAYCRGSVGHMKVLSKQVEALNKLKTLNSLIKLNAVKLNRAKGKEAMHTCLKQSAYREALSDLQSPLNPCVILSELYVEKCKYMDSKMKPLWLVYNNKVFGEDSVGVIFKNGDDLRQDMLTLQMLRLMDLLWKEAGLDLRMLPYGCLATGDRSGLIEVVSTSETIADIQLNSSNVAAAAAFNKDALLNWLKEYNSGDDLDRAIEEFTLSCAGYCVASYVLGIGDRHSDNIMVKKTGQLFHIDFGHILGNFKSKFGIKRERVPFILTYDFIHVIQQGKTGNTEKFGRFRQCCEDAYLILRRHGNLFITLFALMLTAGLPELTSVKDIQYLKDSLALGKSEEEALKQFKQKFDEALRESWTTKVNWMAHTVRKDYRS
PI3K beta, sequence (P27986 whole entry partner): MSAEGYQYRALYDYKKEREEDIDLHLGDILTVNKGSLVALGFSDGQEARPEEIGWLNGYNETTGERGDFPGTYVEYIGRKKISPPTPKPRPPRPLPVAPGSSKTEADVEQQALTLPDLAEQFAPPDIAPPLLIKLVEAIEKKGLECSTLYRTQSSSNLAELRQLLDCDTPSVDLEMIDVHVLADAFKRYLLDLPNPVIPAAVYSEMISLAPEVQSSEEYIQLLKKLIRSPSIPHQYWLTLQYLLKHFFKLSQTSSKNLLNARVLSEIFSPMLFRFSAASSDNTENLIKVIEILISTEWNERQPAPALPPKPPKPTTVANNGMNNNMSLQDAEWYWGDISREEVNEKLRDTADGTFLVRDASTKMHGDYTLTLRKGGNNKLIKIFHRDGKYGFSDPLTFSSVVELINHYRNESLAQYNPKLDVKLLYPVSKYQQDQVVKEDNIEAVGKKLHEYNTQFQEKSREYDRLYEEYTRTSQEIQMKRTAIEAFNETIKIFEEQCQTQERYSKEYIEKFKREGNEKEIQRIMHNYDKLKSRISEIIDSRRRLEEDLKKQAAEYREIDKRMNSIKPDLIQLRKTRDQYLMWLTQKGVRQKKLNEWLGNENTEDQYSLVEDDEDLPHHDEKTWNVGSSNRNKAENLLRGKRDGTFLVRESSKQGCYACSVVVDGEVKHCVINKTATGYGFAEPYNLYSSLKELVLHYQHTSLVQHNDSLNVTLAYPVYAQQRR
BTK, sequence (Q06187 whole entry): as the sequence (Q06187 whole entry C481S) above, with S481C counted along it
CDK6 cyclinD1, sequence (Q00534 whole entry): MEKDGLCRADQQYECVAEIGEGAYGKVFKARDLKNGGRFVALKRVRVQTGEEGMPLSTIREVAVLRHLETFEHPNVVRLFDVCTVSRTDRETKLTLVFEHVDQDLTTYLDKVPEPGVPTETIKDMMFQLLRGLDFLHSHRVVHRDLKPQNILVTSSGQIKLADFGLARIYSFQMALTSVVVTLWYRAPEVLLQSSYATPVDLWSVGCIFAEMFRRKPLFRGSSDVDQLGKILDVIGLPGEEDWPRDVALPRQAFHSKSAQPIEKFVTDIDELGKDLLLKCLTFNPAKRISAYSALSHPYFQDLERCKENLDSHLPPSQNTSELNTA
CDK6 cyclinD1, sequence (P24385 whole entry partner): as the sequence (P24385 whole entry partner) above

Row | Structure (SMILES) | IC50 (PI3K alpha) [µM] | IC50 (BRD4-2) [µM] | IC50 (PI3K gamma) [µM] | IC50 (PI3K beta) [µM] | IC50 (BRD4-1) [µM] | IC50 (CDK6 cyclinD1) [µM] | IC50 (CDK4 cyclinD1) [µM] | IC50 (BTK) [µM] | IC50 (BTK C481S) [µM]
1 | O=c1cc(N2CCNCC2)oc2c(-c3ccc4c(c3)OCCO4)csc12 [Compound 1] | > 45 | 10 to 45 | > 45 | 10 to 45 | < 0.5 |  |  |  | 
2 | O=C(NCc1cccnc1)c1cc(-c2csc3c(=O)cc(N4CCOCC4)oc23)cc2c1OCCO2 [Compound 2] | < 0.5 | < 0.5 | < 0.5 | < 0.5 | < 0.5 |  |  |  | 
3 | O=C(NCc1cccnc1)c1cc(-c2csc3c(=O)cc(N4CCNCC4)oc23)cc2c1OCCO2 [Compound 3] | 1 to 10 | 1 to 10 | 10 to 45 | 1 to 10 | < 0.5 |  |  |  | 
4 | CN1CCN(c2cc(=O)c3scc(-c4cc5c(c(C(=O)NCc6cccnc6)c4)OCCO5)c3o2)CC1 [Compound 4] | 10 to 45 | 1 to 10 | 10 to 45 | 1 to 10 | < 0.5 |  |  |  | 
5 | COC(=O)c1cc(-c2csc3c(=O)cc(N4CCN(C(=O)OC(C)(C)C)CC4)oc23)cc2c1OCCO2 [Compound 5] | < 0.5 | > 45 | < 0.5 | 1 to 10 | < 0.5 |  |  |  | 
6 | CN(C)C(=O)c1cc2cnc(Nc3ccc(-c4csc5c(=O)cc(N6CCOCC6)oc45)cn3)nc2n1C1CCCC1 [Compound 8] | < 0.5 | < 0.5 | 0.5 to 1 | < 0.5 | < 0.5 | < 0.5 | < 0.5 |  | 
7 | CN(C)C(=O)c1cc2cnc(Nc3ccc(-c4csc5c(=O)cc(N6CCNCC6)oc45)cc3)nc2n1C1CCCC1 [Compound 9] | 10 to 45 | 0.5 to 1 | 10 to 45 | 10 to 45 | < 0.5 | < 0.5 | < 0.5 |  | 
8 | CN(C)C(=O)c1cc2cnc(Nc3ccc(-c4csc5c(=O)cc(N6CCN(C(=O)OC(C)(C)C)CC6)oc45)cc3)nc2n1C1CCCC1 [Compound 10] | 1 to 10 | 1 to 10 | 1 to 10 | 0.5 to 1 | 0.5 to 1 | < 0.5 | < 0.5 |  | 
9 | COC(=O)c1cc(-c2csc3c(=O)cc(N4CCOCC4)oc23)ccc1Nc1ncc2cc(C(=O)N(C)C)n(C3CCCC3)c2n1 [Compound 11] | < 0.5 | 1 to 10 | 1 to 10 | < 0.5 | < 0.5 | > 45 | > 45 |  | 
10 | CN(C)C(=O)c1cc2cnc(Nc3csc4c(=O)cc(N5CCOCC5)oc34)nc2n1C1CCCC1 [Compound 12] | 1 to 10 | 10 to 45 | > 45 | < 0.5 | 10 to 45 | > 45 | 1 to 10 |  | 
11 | CN(C)C(=O)c1cc2cnc(Nc3ccc(-c4csc5c(=O)cc(N6CCOCC6)oc45)cc3C(=O)O)nc2n1C1CCCC1 [Compound 13] | < 0.5 | 0.5 to 1 | 0.5 to 1 | < 0.5 | 0.5 to 1 | > 45 | > 45 |  | 
12 | CN(C)C(=O)c1cc2cnc(Nc3ccc(-c4csc5c(=O)cc(N6CCOCC6)oc45)c(C(=O)O)c3)nc2n1C1CCCC1 [Compound 14] | < 0.5 | 10 to 45 | < 0.5 | < 0.5 | > 45 | 10 to 45 | 10 to 45 |  | 
13 | CN(C)C(=O)c1cc2cnc(Nc3ccc(-c4csc5c(=O)cc(N6CCOCC6)oc45)c(C(=O)O)c3)nc2n1C1CCCC1 [Compound 15] | < 0.5 | 10 to 45 | 1 to 10 | < 0.5 | 10 to 45 | 0.5 to 1 | 1 to 10 |  | 
14 | CNC(=O)c1cc2cnc(Nc3ccc(-c4csc5c(=O)cc(N6CCOCC6)oc45)cc3)nc2n1C1CCCC1 [Compound 16] | < 0.5 | < 0.5 | 1 to 10 | < 0.5 | < 0.5 | < 0.5 | < 0.5 |  | 
15 | CNC(=O)c1cc2cnc(Nc3ccc(C#Cc4csc5c(=O)cc(N6CCOCC6)oc45)cc3)nc2n1C1CCCC1 [Compound 17] | < 0.5 | 10 to 45 | 0.5 to 1 | < 0.5 | 1 to 10 | < 0.5 | < 0.5 |  | 
16 | CN(C)C(=O)c1cc2cnc(Nc3cccc(-c4csc5c(=O)cc(N6CCOCC6)oc45)c3)nc2n1C1CCCC1 [Compound 18] | 0.5 to 1 | 0.5 to 1 | 1 to 10 | < 0.5 | 1 to 10 | < 0.5 | < 0.5 |  | 
17 | CN(C)C(=O)c1cc2cnc(Nc3cncc(-c4csc5c(=O)cc(N6CCOCC6)oc45)c3)nc2n1C1CCCC1 [Compound 19] | 0.5 to 1 | 1 to 10 | 1 to 10 | < 0.5 | 1 to 10 | < 0.5 | < 0.5 |  | 
18 | CN(C)C(=O)c1cc2cnc(Nc3cc(C(=O)O)cc(-c4csc5c(=O)cc(N6CCOCC6)oc45)c3)nc2n1C1CCCC1 [Compound 20] | 1 to 10 | > 45 | > 45 | 1 to 10 | 10 to 45 | > 45 | 10 to 45 |  | 
19 | CN(C)C(=O)c1cc2cnc(N(c3cncc(-c4csc5c(=O)cc(N6CCOCC6)oc45)c3)c3ncc4cc(C(=O)N(C)C)n(C5CCCC5)c4n3)nc2n1C1CCCC1 [Compound 21] | 1 to 10 | 1 to 10 | 10 to 45 | 1 to 10 | 1 to 10 | 0.5 to 1 | < 0.5 |  | 
20 | CN(C)C(=O)c1cc2cnc(Nc3ccc(-c4csc5c(=O)cc(N6CCOCC6)oc45)c(C(=O)NCCN)c3)nc2n1C1CCCC1 [Compound 22] | 0.5 to 1 | 1 to 10 | 10 to 45 | < 0.5 | > 45 | < 0.5 | < 0.5 |  | 
21 | O=C(O)c1cc2cnc(Nc3ccc(-c4csc5c(=O)cc(N6CCOCC6)oc45)cc3)nc2n1C1CCCC1 [Compound 23] | < 0.5 | 1 to 10 | < 0.5 | < 0.5 | 0.5 to 1 | < 0.5 | < 0.5 |  | 
22 | CN(C)C(=O)c1cc2cnc(N3CCOc4cc(-c5csc6c(=O)cc(N7CCOCC7)oc56)ccc43)nc2n1C1CCCC1 [Compound 24] | < 0.5 |  | 1 to 10 | < 0.5 |  |  | > 45 |  | 
23 | CC(C)n1c(C(=O)N(C)C)cc2cnc(Nc3ccc(-c4csc5c(=O)cc(N6CCOCC6)oc45)cc3)nc21 [Compound 25] | < 0.5 | < 0.5 | 1 to 10 | < 0.5 | < 0.5 | < 0.5 | < 0.5 |  | 
24 | C=CC(=O)N1CCOc2ccc(-c3csc4c(=O)cc(N5CCNCC5)oc34)cc21 [Compound 26] | 10 to 45 |  | > 45 | 1 to 10 | < 0.5 |  |  | < 0.5 | 10 to 45
25 | C=CC(=O)Nc1cccc(-c2csc3c(=O)cc(N4CCNCC4)oc23)c1 [Compound 27] | > 45 |  | > 45 | > 45 | 0.5 to 1 |  |  |  | 10 to 45
26 | C=CC(=O)N1CCOc2ccc(-c3csc4c(=O)cc(N5CCN(C)CC5)oc34)cc21 [Compound 28] | 10 to 45 | 10 to 45 | > 45 | 1 to 10 |  |  |  | < 0.5 | 
27 | C=CC(=O)N1CCOc2ccc(-c3csc4c(=O)cc(N5CCN(C(=O)OC(C)(C)C)CC5)oc34)cc21 [Compound 29] | 10 to 45 |  | 10 to 45 | 1 to 10 | 0.5 to 1 |  |  | < 0.5 | 10 to 45
28 | CCCCC/C=C/C(=O)Nc1cccc(-c2csc3c(=O)cc(N4CCOCC4)oc23)c1 [Compound 34] |  | 10 to 45 | 10 to 45 | 1 to 10 |  |  |  | > 45 | > 45
29 | N#C/C(=C\C1CC1)C(=O)Nc1cccc(-c2csc3c(=O)cc(N4CCOCC4)oc23)c1 [Compound 35] | < 0.5 | 0.5 to 1 |  | < 0.5 |  |  |  | 10 to 45 | 10 to 45
30 | O=C(C1=CCCC1)N1CCOc2ccc(-c3csc4c(=O)cc(N5CCOCC5)oc34)cc21 [Compound 41] |  |  |  |  |  |  |  | 1 to 10 | 

— patent US20230165873A1, “Methods of Use for Single Molecule Compounds Providing Multi-Target Inhibition to Treat Covid 19” (priority 2020, published 2023)
